Laboratory results taken from patent US10112911B2, “Substituted cyanoguanidines as oral anti-virals” (Abbvie Inc, priority 2012, dated 2018).
pEC50: −log10 of the molar value.

System: RSV (Group A, Long Strain)
Experiment: Cytopathetic effect (CPE) protection antiviral assay, MTT readout
Format: cell-based
Conditions: human respiratory syncytial virus, HEp-2, 96 h, HEp-2 cells, 0.2 MOI RSV, 4 days incubation, protection from CPE (Table 1); read-out: RSV EC50
Description: HEp-2 cells and RSV (Group A, Long Strain) were obtained from the American Type Culture Collection (Manassas, Va.).
A cytopathetic effect (CPE) protection assay was performed to determine the ability of a compound to protect the cells from viral infection and thus the CPE induced by viral infection. 96-Well plates were first seeded with […] per well in Dulbecco's modified Eagle's medium (DMEM) containing 10% fetal bovine serum (FBS). One day after the cells were seeded, they were preincubated with serial dilutions of compounds prepared in 100 μL assay medium (DMEM mixed with F12 medium at a 1:1 ratio, supplemented with 2% FBS and 1 mM sodium pyruvate) for 1 hour at 37° C. 100 μL of assay medium containing 0.2 multiplicity of infection (MOI) of RSV was then added to each well of cells. In addition to wells containing infected cells incubated with compounds, each plate also contained replicates of two kinds of controls: (1) Virus control contained cells infected with 0.2 MOI of RSV in assay medium, (2) Uninfected cell control contained cells incubated with assay medium only. After 4 days of incubation at 37° C., the viability of cells was assessed using MTT (Thiazolyl blue tetrazolium bromide, Sigma). A stock solution of MTT, at a concentration of 4 mg/mL in phosphate-buffered saline, was added to all wells at 25 μL per well. Plates were further incubated for 4 hours, and each well was then treated with 50 μL of a solution containing 20% sodium dodecyl sulfate (SDS) and 0.02 N HCl. After an overnight incubation, the plates were measured on a BioTek® microtiter plate reader at wavelengths of 570 nm and 650 nm. The MTT detection is based on the fact that viable (uninfected) cells can reduce the tetrazolium salts into colored formazan products, which can then be quantitated by spectrometry. Based on the spectrometric absorbance of each sample, the percent of protection from CPE, which is an indicator of protection from viral infection, can be calculated for each compound and the 50% effective concentrations (EC50) can be calculated using a nonlinear regression curve fitting equation provided by the GraphPad Prism® 4 software.
Compounds were tested to determine both their antiviral and toxicity to determine their therapeutic window. Determination of the EC50 and TD50 of these active compounds were repeated one additional time to confirm the window.

SMILES: Cc1ccncc1NC(=NC#N)N1CCN(c2cnc3ccccc3n2)CC1C(C)C (stereo not drawn) [Example 1.72, N′-cyano-2-isopropyl-N-(4-methylpyridin-3-yl)-4-(quinoxalin-2-yl)piperazine-1-carboximidamide]
- pEC50: < 5.27

SMILES: CC(C)C1CN(c2cnc3ccccc3n2)CCN1/C(=N\C#N)Nc1cccc(Cl)c1 (stereo not drawn) [Example 1.28, N-(3-chlorophenyl)-N′-cyano-2-isopropyl-4-(quinoxalin-2-yl)piperazine-1-carboximidamide]
- pEC50: 5.51

SMILES: Cc1ccc2ncc(N3CCN(/C(=N\C#N)Nc4ccccc4C)C(C(C)C)C3)nc2c1 (stereo not drawn) [Example 1.56, N′-cyano-2-isopropyl-N-(2-methylphenyl)-4-(7-methylquinoxalin-2-yl)piperazine-1-carboximidamide]
- pEC50: 5.80

SMILES: Cc1ccc(N/C(=N/C#N)N2CCN(c3cnc4ccccc4n3)CC2C(C)C)cc1 (stereo not drawn) [Example 1.16, N′-cyano-2-isopropyl-N-(4-methylphenyl)-4-(quinoxalin-2-yl)piperazine-1-carboximidamide]
- pEC50: < 5.00

SMILES: Cc1ccccc1N/C(=N/C#N)N1CCN(c2cnc3cccc(C(F)(F)F)c3n2)CC1C(C)C (stereo not drawn) [Example 1.59, N′-cyano-2-isopropyl-N-(2-methylphenyl)-4-[8-(trifluoromethyl)quinoxalin-2-yl]piperazine-1-carboximidamide]
- pEC50: < 5.49

SMILES: Cc1ccccc1N/C(=N/C#N)N1CCN(c2cnc3cc(Cl)c(Cl)cc3n2)CC1C(C)C (stereo not drawn) [Example 1.58, N′-cyano-4-(6,7-dichloroquinoxalin-2-yl)-2-isopropyl-N-(2-methylphenyl)piperazine-1-carboximidamide]
- pEC50: < 5.49

SMILES: COc1ccccc1N/C(=N/C#N)N1CCN(c2cnc3ccccc3n2)CC1C(C)C (stereo not drawn) [Example 1.18, N′-cyano-2-isopropyl-N-(2-methoxyphenyl)-4-(quinoxalin-2-yl)piperazine-1-carboximidamide]
- pEC50: 5.94

SMILES: Cc1ccccc1NC(=NC#N)N1CCN(c2nc(C)c(C)c(NC3CCCCC3)n2)CC1C(C)C (stereo not drawn) [Example 1.64, N′-cyano-4-[4-(cyclohexylamino)-5,6-dimethylpyrimidin-2-yl]-2-isopropyl-N-(2-methylphenyl)piperazine-1-carboximidamide]
- pEC50: < 5.00

SMILES: CC(C)CC1CN(c2cnc3ccccc3n2)CCN1/C(=N\C#N)Nc1ccccc1Cl (stereo not drawn) [Example 1.41, N-(2-chlorophenyl)-N′-cyano-2-isobutyl-4-(quinoxalin-2-yl)piperazine-1-carboximidamide]
- pEC50: 5.91

SMILES: CC(C)C1CN(c2cnc3ccccc3n2)CCN1/C(=N\C#N)Nc1ccc(F)cc1Cl (stereo not drawn) [Example 1.30, N-(2-chloro-4-fluorophenyl)-N′-cyano-2-isopropyl-4-(quinoxalin-2-yl)piperazine-1-carboximidamide]
- pEC50: < 5.00

SMILES: CC(C)C1CN(c2cnc3ccccc3n2)CCN1/C(=N\C#N)Nc1ccccc1OC(F)(F)F (stereo not drawn) [Example 1.27, N′-cyano-2-isopropyl-4-(quinoxalin-2-yl)-N-[2-(trifluoromethoxy)phenyl]piperazine-1-carboximidamide]
- pEC50: < 5.00

SMILES: CC(C)C1CN(c2cnc3ccccc3n2)CCN1/C(=N\C#N)Nc1ccc(Cl)cc1 (stereo not drawn) [Example 1.15, N-(4-chlorophenyl)-N′-cyano-2-isopropyl-4-(quinoxalin-2-yl)piperazine-1-carboximidamide]
- pEC50: < 5.00

SMILES: CC(C)C1CN(c2cnc3ccccc3n2)CCN1/C(=N\C#N)Nc1ccccc1F (stereo not drawn) [Example 1.21, N′-cyano-N-(2-fluorophenyl)-2-isopropyl-4-(quinoxalin-2-yl)piperazine-1-carboximidamide]
- pEC50: 5.68

SMILES: Cc1ccccc1CN/C(=N/C#N)N1CCN(c2cnc3ccccc3n2)CC1C(C)C (stereo not drawn) [Example 1.35, N′-cyano-2-isopropyl-N-(2-methylbenzyl)-4-(quinoxalin-2-yl)piperazine-1-carboximidamide]
- pEC50: < 5.00

SMILES: Cc1ccccc1N/C(=N/C#N)N1CCN(c2cnc3cc(F)c(F)cc3n2)CC1C(C)C (stereo not drawn) [Example 1.51, N′-cyano-4-(6,7-difluoroquinoxalin-2-yl)-2-isopropyl-N-(2-methylphenyl)piperazine-1-carboximidamide]
- pEC50: 6.16
